The results in this text go back to patent publication US7384934B2, “Piperazine substituted aryl benzodiazepines” (Eli Lilly and Company, priority 2002, dated 2008).

Where a name gives a salt, the structure may show the parent alone.

T1 sequence (P14416 1-414 isoform P14416-2): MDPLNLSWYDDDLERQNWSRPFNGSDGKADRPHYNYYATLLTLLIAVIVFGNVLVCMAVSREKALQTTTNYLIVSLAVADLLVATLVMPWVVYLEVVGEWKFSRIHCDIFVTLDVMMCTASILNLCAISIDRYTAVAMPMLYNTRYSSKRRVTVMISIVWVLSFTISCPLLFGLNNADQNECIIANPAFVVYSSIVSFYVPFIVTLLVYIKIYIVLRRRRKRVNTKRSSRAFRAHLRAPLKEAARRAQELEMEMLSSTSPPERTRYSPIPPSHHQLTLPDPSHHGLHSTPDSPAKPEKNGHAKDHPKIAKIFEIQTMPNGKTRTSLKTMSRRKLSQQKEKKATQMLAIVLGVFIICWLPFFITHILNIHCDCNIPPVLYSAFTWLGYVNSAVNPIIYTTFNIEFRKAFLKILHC

This experiment addresses T1, Dopamine D2 receptor (Homo sapiens, UniProt P14416).
T1 construct: purchased Receptor Biology (now owned by NEN) RBHD2CM
Put plainly: Dopamine D2 receptor binding assay ([125I]iodospiperone). Conditions: relative Ki scale of Table 5; read-out: Relative D2 Receptor Binding Affinity Ki. How it is done: The assay buffers used are 50 mM Tris-HCl pH 7.4, 120 mM NaCl, 5 mM KCl, 5 mM MgCl2, 1 mM EDTA for the Dopamine D2s receptor binding assay. […] The membranes used are from Receptor Biology (now owned by NEN), Cat # RBHD2CM for the D2 receptor.
Compounds are obtained as 10 mM stocks in 100% DMSO. They are diluted to 1 mM in 100% DMSO by adding 180 μL DMSO to 20 μL of stock in 96 well plates using a multidrop. […] This is done using a TECAN robot.
The radioligand is diluted in assay buffer to provide 0.1 nM for the D2 assay. Each vial of membranes is diluted up to 92 mL in assay buffer. The final assay volume is 250 μL consisting of 210 μl of diluted membranes, 20 μL of compound or 10% DMSO for total binding, and 20 μL of diluted radioligand. The compounds are transferred from drug dilution plates into coming 96 well assay plates using a 96 well Multimek pipettor. Radioligand and membranes are added to assay plates using multidrop pipettors. Non-specific binding is determined in wells containing a final concentration of 5 μM haloperidol. The final drug concentration range in half logs is from 10 μM down to 0.1 nM.
After addition of drug, membrane, and ligand, the plates are incubated for 2 hours at room temperature. During this time 96 well Millipore filter plates (MAFBNOB50) are soaked for a least 30 minutes with 200 μL per well of 0.5% polyethyleneimine.
The 0.5% PEI is removed from filterplate wells using a TiterTek MAP aspirator and 200 μL of the incubation mixture is transferred from the incubation plate to the filterplate after mixing. This transfer is done using the 96 tip Mutimek pipettor. After transfer to the filterplate filterplates are extracted and ished twice with 220 μL per well of cold buffer on the MAP aspirator. The peel away bottoms are removed from the filterplates and 60 μL per well of microscint 20 scintillation fluid is added per well using a multidrop. […]
What is called Ki is a dissociation constant, usually derived from enzyme kinetics or from competition with a known ligand. Regarding `CCOCC[C@H]1CN(C2=Nc3ccccc3Nc3sc(C(C)C)nc32)CCN1` [Example 309, (S)-10-[3-(2-Ethoxyethyl)-piperazin-1-yl]-2-isopropyl-4H-3-thia-1,4,9-triazabenzo[f]azulene], the Ki lay within 10 to 100 nM.
The value for `COCC[C@H]1CN(C2=Nc3ccccc3Nc3sc(CO)nc32)CCN1` [Example 312, (S)-10-[3-(2-Methoxy-ethyl)-piperazin-1-yl]-4H-3-thia-1,4,9-triaza-benzo[f]azulene-2-yl-methanol] was 100 to 1000 nM.
The value for `COCC[C@H]1CN(C2=Nc3ccccc3Nc3sc(C(C)C)nc32)CCN1CCO` [Example 342, (S)-2-[4-(2-Isopropyl-4H-3-thia-1,4,9-triazabenzo[f]azulene-10-yl)-2-(2-methoxyethyl)piperazin-1-yl]ethanol dihydrochloride] was 10 to 100 nM.
Under `CCOCC[C@H]1CN(C2=Nc3ccccc3Nc3sc(C)cc32)CCN1C` [Example 268, (S)-10-[3-(2-Ethoxyethyl)-4-methyl-piperazin-1-yl]-2-methyl-4H-3-thia-4,9-diazabenzo[f]azulene dihydrochloride] stands 10 to 100 nM; under `CCCc1nc2c(s1)Nc1ccccc1N=C2N1CCN(C)[C@@H](CCOC)C1` [Example 323, (S)-10-[3-(2-Methoxy-ethyl)-4-methyl-piperazin-1-yl]-2-propyl 4H-3-thia-1,4,9-triaza-benzo[f]azulene dihydrochloride], 10 to 100 nM.
Take `CCc1nc2c(s1)Nc1ccccc1N=C2N1CCN(C)[C@@H](CCOC)C1` [Example 322, (S)-10-[3-(2-Methoxy-ethyl)-4-methyl-piperazin-1-yl]-2-ethyl-4H-3-thia-1,49-triaza-benzo[f]azulene dihydrochloride]: the Ki was in the range of 10 to 100 nM.
Under `COCC[C@H]1CN(C2=Nc3ccccc3Nc3sc(C(F)(F)F)nc32)CCN1CCCF` [Example 351, (S)-10-[4-(3-Fluoro-propyl)-3-(2-methoxy-ethyl)-piperazin-1-yl]-2-trifluoromethyl-4H-3-thia-1,4,9-triaza-benzo[f]azulene] stands 10 to 100 nM; under `COCC[C@H]1CN(C2=Nc3ccccc3Nc3sc(C(F)F)nc32)CCN1` [Example 316, (S)-10-[3-(2-Methoxy-ethyl)-piperazin-1-yl]-2-difluoromethyl-4H-3-thia-1,49-triaza-benzo[f]azulene], less than 10 nM.
Consider `COC(C)C[C@H]1CN(C2=Nc3ccccc3Nc3sc(C)cc32)CCN1C` (mixture of isomers) [Example 360, 10-[3(S)-(2(S)-Methoxypropyl)-4-methylpiperazin-1-yl]-2-methyl-4H-3-thia-4,9-diazabenzo[f]azulene dihydrochloride and 10-[3(S)-(2(R)-Methoxypropyl)-4-methylpiperazin-1-yl]-2-methyl-4H-3-thia-4,9-diazabenzo[f]azulene dihydrochloride], for which the Ki is 100 to 1000 nM.
The value for `COC(C)C[C@H]1CN(C2=Nc3ccccc3Nc3sc(C)cc32)CCN1` (mixture of isomers) [Example 359, 10-[3(S)-(2(S)-Methoxypropyl)-piperazin-1-yl]-2-methyl-4H-3-thia-4,9-diazabenzo[f]azulene and 10-[3(S)-(2(R)-Methoxypropyl)-piperazin-1-yl]-2-methyl-4H-3-thia-4,9-diazabenzo[f]azulene] was 10 to 100 nM.
The value for `COCC[C@H]1CN(C2=Nc3ccccc3Nc3sc(C(F)(F)F)nc32)CCN1` [Example 314, (S)-10-[3-(2-Methoxy-ethyl)-piperazin-1-yl]-2-trifluoromethyl-4H-3-thia-1,4,9-triaza-benzo[f]azulene] was less than 10 nM; that for `COCC[C@H]1CN(C2=Nc3ccccc3Nc3cc(C)ccc32)CCN1` [Example 198, (S)-3-Methyl-11-[3-(2-methoxy-ethyl)-piperazin-1-yl]-5H-dibenzo[b,e][1,4]diazepine] was more than 1000 nM; that for `COCC[C@H]1CN(C2=Nc3ccccc3Nc3sc(C(F)(F)F)nc32)CCN1C` [Example 334, (S)-10-[3-(2-Methoxy-ethyl)-4-methyl-piperazin-1-yl]-2-trifluoromethyl-4H-3-thia-1,4,9-triaza-benzo[f]azulene] was less than 10 nM.
Under `CCCCc1nc2c(s1)Nc1ccccc1N=C2N1CCN[C@@H](CCOC)C1` [Example 305, (S)-10-[3-(2-Methoxy-ethyl)-piperazin-1-yl]-2-butyl-4H-3-thia-1,4,9-triaza-benzo[f]azulene] stands 10 to 100 nM.
`CC(C)c1nc2c(s1)Nc1ccccc1N=C2N1CCN[C@@H](CC(C)(C)O)C1` [Example 367, (S)-1-[4-(2-Isopropyl-4H-3-thia-1,4,9-triazabenzo[f]azulene-10-yl)-piperazin-2-yl]-2-methylpropan-2-ol dihydrochloride]: the Ki was less than 10 nM.
Under `CCOC(=O)c1nc2c(s1)Nc1ccccc1N=C2N1CCN[C@@H](CCOC)C1` [Example 313, (S)-10-[3-(2-Methoxy-ethyl)-piperazin-1-yl]-4H-3-thia-1,4,9-triaza-benzo[f]azulene-2-carboxylic acid ethyl ester] stands 100 to 1000 nM; under `Cc1cc2c(s1)Nc1ccccc1N=C2N1CCN(C)[C@@H](CC(C)(C)O)C1` [Example 370, (S)-2-Methyl-1-[1-methyl-4-(2-methyl-4H-3-thia-4,9-diazabenzo[f]azulene-10-yl)-piperazin-2-yl]-propan-2-ol dihydrochloride], 100 to 1000 nM; under `CCCN1CCN(C2=Nc3ccccc3Nc3sc(C(F)(F)F)nc32)C[C@@H]1CCOC` [Example 346, (S)-10-[3-(2-Methoxy-ethyl)-4-propyl-piperazin-1-yl]-2-trifluoromethyl-4H-3-thia-1,4,9-triaza-benzo[f]azulene], less than 10 nM.
Under `COCC[C@H]1CN(C2=Nc3ccccc3Nc3sc(C(F)(F)F)nc32)CCN1CCOCCO` [Example 357] stands 10 to 100 nM; under `CC(C)c1nc2c(s1)Nc1ccccc1N=C2N1CCN(C)[C@@H](CC(C)(C)O)C1` [Example 368, (S)-1-[4-(2-Isopropyl-4H-3-thia-1,4,9-triazabenzo[f]azulene-10-yl)-1-methylpiperazin-2-yl]-2-methyl-propan-2-ol dihydrochloride], less than 10 nM.
The value for `COCC[C@H]1CN(C2=Nc3ccccc3Nc3sc(CCC(F)(F)F)nc32)CCN1C` [Example 338, (S)-10-[3-(2-Methoxy-ethyl)-4-methyl-piperazin-1-yl]-2-(3,3,3-trifluoro-propyl)-4H-3-thia-1,4,9-triaza-benzo[f]azulene dihydrochloride] was 10 to 100 nM; that for `CCN1CCN(C2=Nc3ccccc3Nc3sc(C(C)C)nc32)C[C@@H]1CCOC` [Example 340, (S)-10-[4-Ethyl-3-(2-methoxyethyl)piperazin-1-yl]-2-isopropyl-4H-3-thia-1,4,9-triazabenzo[f]azulene dihydrochloride] was 10 to 100 nM; that for `COCC[C@H]1CN(C2=Nc3ccccc3Nc3sc(C(F)(F)F)nc32)CCN1CCCO` [Example 355, (S)-3-[2-(2-Methoxy-ethyl)-4-(2-trifluoromethyl-4H-3-thia-1,4,9-triaza-benzo[f]azulene-10-yl)-piperazin-1-yl]-propan-1-ol] was 10 to 100 nM.
Take `CCc1nc2c(s1)Nc1ccccc1N=C2N1CCN[C@@H](CCOC)C1` [Example 303, (S)-10-[3-(2-Methoxy-ethyl)-piperazin-1-yl]-2-ethyl-4H-3-thia-1,4,9-triaza-benzo[f]azulene]: the Ki is less than 10 nM.
The value for `COCC[C@H]1CN(C2=Nc3ccccc3Nc3sc(C)cc32)CCN1` [Example 242, (S)-10-[3-(2-Methoxyethyl)-piperazin-1-yl]-2-methyl-4H-3-thia-4,9-diazabenzo[f]azulene hydrochloride] was 10 to 100 nM.
Under `Cc1cc2c(s1)Nc1ccccc1N=C2N1CCN(C)[C@@H](CCOc2ccccc2)C1` [Example 269, (S)-10-[4-Methyl-3-(2-phenoxyethyl)piperazin-1-yl]-2-methyl-4H-3-thia-4,9-diazabenzo[f]azulene dihydrochloride] stands 10 to 100 nM.
Under `COCC[C@H]1CN(C2=Nc3ccccc3Nc3sc(C(F)(F)F)nc32)CCN1CCO` [Example 353] stands 10 to 100 nM; under `CCCN1CCN(C2=Nc3ccccc3Nc3sc(C(C)C)nc32)C[C@@H]1CCOC` [Example 341, (S)-10-[3-(2-Methoxyethyl)-4-propylpiperazin-1-yl]-2-isopropyl-4H-3-thia-1,4,9-triazabenzo[f]azulene dihydrochloride], 10 to 100 nM; under `CCCc1nc2c(s1)Nc1ccccc1N=C2N1CCN[C@@H](CCOC)C1` [Example 304, (S)-10-[3-(2-Methoxy-ethyl)-piperazin-1-yl]-2-propyl-4H-3-thia-1,4,9-triaza-benzo[f]azulene], less than 10 nM.
